What was measured:
IDO1 [1] = molecular target: T1, IDO1 (Homo sapiens (Human), UniProt P14902); experiment: IDO1 Enzyme Assay; conditions: HIS-tagged recombinant IDO1, 40 nM
IDO1 [2] = molecular target: T1, IDO1; experiment: IDO1 Cellular Assay in Frozen HEK293 Cells Transiently Transfected with Human IDO1; assay type: cell-based; conditions: read-out: IDO1 HEK293 Cell Assay, IC50
IDO1 [3] = molecular target: T1, IDO1; experiment: IDO1 Cellular Assay in Hela Cells Stimulated with IFNγ; assay type: cell-based; conditions: Hela cells stimulated with IFNγ 100 ng/mL; read-out: IDO1 HELA Cell Assay, IC50
IDO1 [4] = molecular target: T1, IDO1; experiment: IDO1 Human Whole Blood Assay; assay type: cell-based; conditions: LPS and IFNγ 100 ng/mL, kynurenine by LC/MS/MS
Method: IDO1 Human Whole Blood Assay
LPS and IFNγ was prepared in RPMI to a 10× of final conc. (1000 ng/mL), final concentration is 100 ng/mL.
Human whole blood was drawn in sodium heparin coated tubes from healthy internal donors. Two hundred fourty μL of blood was transferred to each of the wells of a v-bottom 96 well plate. Thirty μL of compound was transferred from intermediate dilution plate, and incubated for 15 min. […] from stimulants was then transferred to blood and mixed thoroughly. Plate was covered with breathable membrane and incubated at 37° C. for overnight (18 h).
On day 2 isotope labeled standard of kunurenine and tryptophan was made in water at 10× concentration and 30 μL was added to the blood at 3 μM final concentration. The assay plates were centrifuged at 300×G for 10 min with no brake to separate plasma from red blood cells. Sixty μL of plasma samples was removed without disturbing red blood cells. Plasma was diluted with RPMI in 1:1 ratio and proteins were precipitated out with two volume of Acetonitrile. The plates was centrifuged at 4000×G for 60 min. Twenty μL of supernatant was carefully transferred to a 384 well plate contain 40 μL of 0.1% formic acid in water and analysed by LC/MS/MS.
LC/MS/MS analyses were performed using Thermo Fisher's LX4-TSQ Quantum Ultra system. This system consists of four Agilent binary high-performance liquid chromatography (HPLC) pumps and a TSQ Quantum Ultra triple quadrupole MS/MS instrument. For each sample, 5 μL were injected onto an Atlantis T3 column column (2.1 mm×150 mm, 3 μm particle size) from Waters. The mobile phase gradient pumped at 0.8 mL/min was used to elute the analytes from the column at 25° C. The elution started at 0% B increasing linearly to 25% B at 6.5 min, holding at 25% for 1 min, re-equilibrating to 10 min. Mobile phase A consisted of 0.1% formic acid in water. Mobile phase B consisted of 0.1% of formic acid in acetonitrile. Data was acquired in positive mode using a HESI interface. The operational parameters for the TSQ Quantum Ultra instrument were a spray voltage of 4000 V, capillary temperature of 380° C., vaporizer temperature 400° C., shealth gas 60 arbitrary units, Aux gas 20 arbitrary units, tube lens 85 and collision gas 1.2 mTorr. SRM chromatograms of kynurenine (Q1: 209.2>Q3:94.0) and internal standard (Q1: 215.3>Q3:98.2) were collected for 90 sec. The peak area was integrated by Xcalibur Quan software. The ratios between the kynurenine generated in the reaction and 2D6-Kynurenine spiked-in internal standard were used to generate percentage inhibition and IC50 values. Compounds were titrated and IC50's were calculated by 4 parameter sigmoidal curve fitting formula.

[5] = HEK293 cells transiently transfected with human IDO1
[6] = read-out: IDO1 Enzyme Assay, IC50

T1 sequence (P14902 whole entry): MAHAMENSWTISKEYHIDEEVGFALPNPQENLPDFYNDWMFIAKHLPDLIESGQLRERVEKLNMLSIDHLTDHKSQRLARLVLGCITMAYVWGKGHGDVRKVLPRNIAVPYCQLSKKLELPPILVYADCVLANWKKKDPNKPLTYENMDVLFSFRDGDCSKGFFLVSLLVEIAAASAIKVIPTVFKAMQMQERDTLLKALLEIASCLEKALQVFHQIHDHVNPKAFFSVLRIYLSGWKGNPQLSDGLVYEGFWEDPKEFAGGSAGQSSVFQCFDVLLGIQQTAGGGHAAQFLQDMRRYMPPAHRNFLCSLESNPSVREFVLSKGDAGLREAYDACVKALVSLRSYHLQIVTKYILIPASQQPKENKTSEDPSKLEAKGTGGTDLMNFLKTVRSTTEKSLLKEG

IC50 (IDO1 [1]; IDO1 Enzyme Assay, IC50, nM)	IC50 (IDO1 [2]; [5])	IC50 (IDO1 [3])	IC50 (IDO1 [4])	IC50 (IDO1 [1]; [6])	Compound	IC50 (IDO1 [2])
69.4 nM	39.9 nM	66 nM	704 nM		CC(C)(O)C(O)CSc1nonc1/C(=N/O)Nc1ccc(F)c(Cl)c1 (single isomer, unassigned) [Example 189, N-(3-chloro-4-fluorophenyl)-4-[(2,3-dihydroxy-3-methylbutyl)sulfanyl]-N′-hydroxy-1,2,5-oxadiazole-3-carboximidamide]	
79.1 nM	56.8 nM	111 nM	1390 nM		CC(C)(O)C(O)CSc1nonc1/C(=N/O)Nc1ccc(F)c(Cl)c1 (single isomer, unassigned) [Example 190, N-(3-chloro-4-fluorophenyl)-4-[(2,3-dihydroxy-3-methylbutyl)sulfanyl]-N′-hydroxy-1,2,5-oxadiazole-3-carboximidamide]	
	42.5 nM	39.5 nM	441 nM	34.8 nM	OCC(O)CSc1nonc1/C(=N/O)Nc1ccc(F)c(Br)c1 (stereo not drawn) [Example 17, (Z)-N-(3-bromo-4-fluorophenyl)-4-((2,3-dihydroxypropyl)thio)-N′-hydroxy-1,2,5-oxadiazole-3-carboximidamide]	
81.3 nM	23.6 nM	61 nM	784 nM		CC(C)(O)C(O)CSc1nonc1/C(=N/O)Nc1ccc(F)c(Br)c1 (stereo not drawn) [Example 29, N-(3-bromo-4-fluorophenyl)-4-((2,3-dihydroxy-3-methylbutyl)thio)-N′-hydroxy-1,2,5-oxadiazole-3-carboximidamide]	
85.3 nM	29.4 nM	84.2 nM	891 nM		CC(C)(O)C(O)CSc1nonc1/C(=N/O)Nc1ccc(F)c(Br)c1 (stereo not drawn) [Example 30, N-(3-bromo-4-fluorophenyl)-4-((2,3-dihydroxy-3-methylbutyl)thio)-N′-hydroxy-1,2,5-oxadiazole-3-carboximidamide]	
	10.2 nM	37.4 nM	643 nM	43.4 nM	COCCNS(=O)(=O)NCCSc1nonc1/C(=N/O)Nc1ccc(F)c(Br)c1 [Example 31, N-(3-bromo-4-fluorophenyl)-N′-hydroxy-4-((2-((N-(2-methoxyethyl)sulfamoyl)amino)ethyl)thio)-1,2,5-oxadiazole-3-carboximidamide]	
	77.7 nM	64.6 nM	923 nM	34.9 nM	O=c1ccc(CSc2nonc2/C(=N/O)Nc2ccc(F)c(Br)c2)n[nH]1 [Example 35, N-(3-bromo-4-fluorophenyl)-N′-hydroxy-4-(((6-oxo-1,6-dihydropyridazin-3-yl)methyl)thio)-1,2,5-oxadiazole-3-carboximidamide]	
	206 nM	94.8 nM	7110 nM		CNc1c(NCCSc2nonc2/C(=N/O)Nc2ccc(F)c(Br)c2)c(=O)c1=O [Example 36, N-(3-bromo-4-fluorophenyl)-N′-hydroxy-4-((2-((2-(methylamino)-3,4-dioxocyclobut-1-en-1-yl)amino)ethyl)thio)-1,2,5-oxadiazole-3-carboximidamide]	
	83.1 nM	59.4 nM	469 nM	104 nM	CC(=O)NCCSc1nonc1/C(=N/O)Nc1ccc(F)c(C#N)c1 [Example 37, N-(2-((4-(N-(3-cyano-4-fluorophenyl)-N′-hydroxycarbamimidoyl)-1,2,5-oxadiazol-3-yl)thio)ethyl)acetamide]	
	92.1 nM	182 nM	1670 nM	76.2 nM	N#Cc1cc(N/C(=N\O)c2nonc2SCCNC(=O)C2CC2)ccc1F [Example 40, N-(2-((4-(N-(3-cyano-4-fluorophenyl)-N′-hydroxycarbamimidoyl)-1,2,5-oxadiazol-3-yl)thio)ethyl)cyclopropanecarboxamide]	
	22.2 nM	17.6 nM	150 nM	43.1 nM	CNC(=O)CSc1nonc1/C(=N/O)Nc1ccc(F)c(Br)c1 [Example 41, 2-((4-(N-(3-bromo-4-fluorophenyl)-N′-hydroxycarbamimidoyl)-1,2,5-oxadiazol-3-yl)thio)-N-methylacetamide]	
	17.5 nM	8.6 nM	130 nM	18.1 nM	COC(=O)CNP(=O)(CCSc1nonc1/C(=N/O)Nc1ccc(F)c(Br)c1)NCC(=O)OC [Example 44, Dimethyl 2,2′-(((2-((4-(N-(3-bromo-4-fluorophenyl)-N′-hydroxycarbamimidoyl)-1,2,5-oxadiazol-3-yl)thio)ethyl)phosphoryl)bis(azanediyl))(Z)-diacetate]	
	33.1 nM	27.2 nM	184 nM	37.5 nM	O=C1CC[C@@H](CSc2nonc2/C(=N/O)Nc2ccc(F)c(Br)c2)N1 [Example 84, N-(3-bromo-4-fluorophenvl)-N′-hydroxy-4-({[(2S)-5-oxopyrrolidin-2-yl]methyl}sulfanyl)-1,2,5-oxadiazole-3-carboximidamide]	
	41.6 nM	15.7 nM	4120 nM	32.3 nM	O=c1cccc(CSc2nonc2/C(=N/O)Nc2ccc(F)c(Br)c2)[nH]1 [Example 86, N-(3-bromo-4-fluorophenyl)-N′-hydroxy-4-{[(6-oxo-1,6-dihydropyridin-2-yl)methyl]sulfanyl}-1,2,5-oxadiazole-3-carboximidamide]	
	83 nM	57.1 nM	635 nM	37.8 nM	Cn1c(CSc2nonc2/C(=N/O)Nc2ccc(F)c(Br)c2)n[nH]c1=O [Example 98, N-(3-bromo-4-fluorophenyl)-N′-hydroxy-4-{[(4-methyl-5-oxo-4,5-dihydro-1H-1,2,4-triazol-3-yl)methyl]sulfanyl}-1,2,5-oxadiazole-3-carboximidamide]	
	44.4 nM	81.8 nM	> 10000 nM	72.4 nM	Cc1cc(CSc2nonc2/C(=N/O)Nc2ccc(F)c(Br)c2)[nH]c(=O)c1 [Example 102, N-(3-bromo-4-fluorophenyl)-N′-hydroxy-4-{[(4-methyl-6-oxo-1,6-dihydropyridin-2-yl)methyl]sulfanyl}-1,2,5-oxadiazole-3-carboximidamide]	
	13.4 nM	28.4 nM	155 nM	14 nM	COC(=O)CNP(=O)(CSc1nonc1/C(=N/O)Nc1ccc(F)c(Br)c1)NCC(=O)OC [Example 120, methyl 6-[({4-[N-(3-bromo-4-fluorophenyl)-N′-hydroxycarbamimidoyl]-1,2,5-oxadiazol-3-yl}sulfanyl)methyl]-3-oxo-2-oxa-5,7-diaza-6-phosphanonan-9-oate 6-oxide]	
	45 nM	131 nM	745 nM	51.9 nM	N[C@H](CO)CSc1nonc1/C(=N/O)Nc1ccc(F)c(Br)c1 [Example 125, 4-{[(2R)-2-amino-3-hydroxypropyl]sulfanyl}-N-(3-bromo-4-fluorophenyl)-N′-hydroxy-1,2,5-oxadiazole-3-carboximidamide]	
	549 nM		3990 nM	75.8 nM	O=C(CSc1nonc1/C(=N/O)Nc1ccc(F)c(Br)c1)N[C@@H]1C[C@@H](O)[C@@H](O)C1 [Example 144, 2-({4-[N-(3-bromo-4-fluorophenyl)-N′-hydroxycarbamimidoyl]-1,2,5-oxadiazol-3-yl}sulfanyl)-N-[(1s,3R,4S)-3,4-dihydroxycyclopentyl]acetamide]	

Compound	IC50 (IDO1 [1]; IDO1 Enzyme Assay, IC50, nM)	IC50 (IDO1 [2]; [5])	IC50 (IDO1 [3])	IC50 (IDO1 [4])	IC50 (IDO1 [1]; [6])	IC50 (IDO1 [2])
CNC(=O)NCCSc1nonc1/C(=N/O)Nc1ccc(F)c(Br)c1 [Example 45, N-(3-bromo-4-fluorophenyl)-N′-hydroxy-4-((2-(3-methylureido)ethyl)thio)-1,2,5-oxadiazole-3-carboximidamide]			47.7 nM	405 nM	22.5 nM	24.3 nM

— patent US10538497B2, “Compounds as indoleamine 2,3-dioxygenase inhibitors” (Merck Sharp & Dohme Corp., priority 2015, dated 2020)
